According to patent publication US10392630B2, “Plants having increased tolerance to herbicides” (BASF AGRO B.V., priority 2013, dated 2019):
“And” between values parts separate entries of the source, which are not always exact repeats. Equal values may be shown once.

Tests used:
[1] = system: transgenic soybean cv Jake cuttings; assay: Herbicide injury of transgenic soybean cuttings from T0 plants (Table 7, FIG. 4); type: in vivo, Glyceine max; settings: V2 spray, 1 week after treatment
[2] = system: Alopecurus wildtype PPO (ALOMY), PPO herbicide sensitive PPO2, SEQ ID NO 2; assay: PPO enzyme assay, dose-response (fluorescence), wildtype Alopecurus PPO2; type: biochemical, Alopecurus myosuroides
[3] = system: transgenic Arabidopsis thaliana plants; assay: Growth inhibition of transgenic Arabidopsis in 48-well plates, tolerance factor (Table 5, FIG. 2); type: in vivo; settings: growth inhibition seven to ten days after seeding
[4] = target: Amaranthus wildtype PPO (AMARE), PPO herbicide sensitive PPO2 (Amaranthus tuberculatus, UniProt Q0NZW9); assay: PPO enzyme assay, dose-response (fluorescence), wildtype Amaranthus PPO2; type: biochemical; settings: IC50 (M), Table 3a
[5] = system: transgenic T0 corn events; assay: Herbicide injury of transgenic T0 corn events, greenhouse spray (Table 6a); type: in vivo, Zea mays; settings: 7 days after treatment

Sequence of Amaranthus wildtype PPO (AMARE), PPO herbicide sensitive PPO2 (Q0NZW9 entry or part of it): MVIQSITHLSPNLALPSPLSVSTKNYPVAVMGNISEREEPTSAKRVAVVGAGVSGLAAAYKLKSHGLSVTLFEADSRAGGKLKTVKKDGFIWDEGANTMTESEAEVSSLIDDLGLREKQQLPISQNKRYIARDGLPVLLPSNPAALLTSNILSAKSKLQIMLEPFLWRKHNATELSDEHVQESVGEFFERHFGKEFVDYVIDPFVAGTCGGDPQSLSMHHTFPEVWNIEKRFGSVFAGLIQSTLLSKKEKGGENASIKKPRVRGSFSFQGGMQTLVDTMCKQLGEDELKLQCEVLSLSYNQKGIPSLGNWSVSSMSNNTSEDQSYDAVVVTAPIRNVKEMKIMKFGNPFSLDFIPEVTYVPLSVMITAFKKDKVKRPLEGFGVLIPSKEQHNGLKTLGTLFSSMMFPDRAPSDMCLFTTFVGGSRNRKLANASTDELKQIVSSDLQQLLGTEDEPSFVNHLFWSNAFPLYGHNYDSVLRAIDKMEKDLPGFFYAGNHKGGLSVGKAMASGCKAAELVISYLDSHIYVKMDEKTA

**Q.** What does the source list for `C#CCN1C(=O)C(F)(F)Oc2cc(F)c(-n3c(=O)n(C)c(=S)n(C)c3=O)cc21` [BAS 850H]?
**A.** Herbicide injury ([1]; AlomyPPO1_R138A T0 cuttings, BAS 850H 25 g ai/ha): 5 and 9; Herbicide injury ([1]; AlomyPPO1_R138A T0 cuttings, BAS 850H 50 g ai/ha): 8 and 9; Herbicide injury ([1]; AlomyPPO1_R138A_Y420M T0 cuttings, BAS 850H 25 g ai/ha): 7; Herbicide injury ([1]; AlomyPPO1_R138A_Y420M T0 cuttings, BAS 850H 50 g ai/ha): 9; Herbicide injury ([1]; AlomyPPO1_R138L T0 cuttings, BAS 850H 25 g ai/ha): 8 and 9 and 6; Herbicide injury ([1]; AlomyPPO1_R138L T0 cuttings, BAS 850H 50 g ai/ha): 8 and 7 and 9; Herbicide injury ([1]; AlomyPPO1_Y420M T0 cuttings, BAS 850H 25 g ai/ha): 6 and 5 and 9; Herbicide injury ([1]; AlomyPPO1_Y420M T0 cuttings, BAS 850H 50 g ai/ha): 8 and 6 and 9; Herbicide injury ([1]; AlomyPPO1_Y420V T0 cuttings, BAS 850H 50 g ai/ha): 9 and 7 and 8 and 5; Herbicide injury ([1]; AlomyPPO2 T0 cuttings, BAS 850H 25 g ai/ha): 7 and 8 and 9; Herbicide injury ([1]; AlomyPPO2 T0 cuttings, BAS 850H 50 g ai/ha): 9 and 8 and 7; Herbicide injury ([1]; AlomyPPO2_R137A T0 cuttings, BAS 850H 25 g ai/ha): 7; Herbicide injury ([1]; AlomyPPO2_R137A T0 cuttings, BAS 850H 50 g ai/ha): 7; Herbicide injury ([1]; AlomyPPO2_R137A_F438I T0 cuttings, BAS 850H 25 g ai/ha): 4 and 5 and 7 and 8 and 6; Herbicide injury ([1]; AlomyPPO2_R137A_F438I T0 cuttings, BAS 850H 50 g ai/ha): 5 and 6 and 7 and 8; Herbicide injury ([1]; AlomyPPO2_R137A_F438I T0 cuttings, BAS 850H 75 g ai/ha): 5 and 8 and 7 and 9 and 6; Herbicide injury ([1]; AlomyPPO2_R137A_F438L T0 cuttings, BAS 850H 25 g ai/ha): 6 and 9 and 8; Herbicide injury ([1]; AlomyPPO2_R137A_F438L T0 cuttings, BAS 850H 50 g ai/ha): 7 and 9 and 5; Herbicide injury ([1]; AlomyPPO2_R137A_F438L T0 cuttings, BAS 850H 75 g ai/ha): 7 and 9 and 5; Herbicide injury ([1]; AlomyPPO2_R137A_F438V T0 cuttings, BAS 850H 50 g ai/ha): 4 and 5 and 6; Herbicide injury ([1]; AlomyPPO2_R137A_F438V T0 cuttings, BAS 850H 75 g ai/ha): 5 and 7 and 6; Herbicide injury ([1]; AlomyPPO2_R137I T0 cuttings, BAS 850H 50 g ai/ha): 6 and 5 and 7 and 9; Herbicide injury ([1]; AlomyPPO2_R137L_F438I T0 cuttings, BAS 850H 25 g ai/ha): 8 and 9; Herbicide injury ([1]; AlomyPPO2_R137L_F438I T0 cuttings, BAS 850H 50 g ai/ha): 9 and 8; Herbicide injury ([1]; AlomyPPO2_R137L_F438I T0 cuttings, BAS 850H 75 g ai/ha): 9 and 8; Herbicide injury ([1]; AlomyPPO2_R137M_F438L T0 cuttings, BAS 850H 50 g ai/ha): 7 and 4 and 5; Herbicide injury ([1]; AlomyPPO2_R137M_F438L T0 cuttings, BAS 850H 75 g ai/ha): 7 and 6 and 5; Herbicide injury ([1]; Wild type cuttings, BAS 850H 25 g ai/ha): 8; Herbicide injury ([1]; Wild type cuttings, BAS 850H 50 g ai/ha): 9; Herbicide injury ([1]; Wild type cuttings, BAS 850H 75 g ai/ha): 9; IC50 ([2]; Table 3a, PPO herbicide sensitive PPO2, SEQ ID NO 2, ALOMY): 0.0364 nM; IC50 ([2]; Table 3b, SEQ ID NO 2, WT): 0.0364 nM; TF (Tolerance Factor), relative tolerance rate (non-transgenic = 1.0) ([3]; transgenic Arabidopsis Am_PPO2_F438I): >50; TF (Tolerance Factor), relative tolerance rate (non-transgenic = 1.0) ([3]; transgenic Arabidopsis Am_PPO2_R137A): >50; TF (Tolerance Factor), relative tolerance rate (non-transgenic = 1.0) ([3]; transgenic Arabidopsis Am_PPO2_R137A_F438I): >50; TF (Tolerance Factor), relative tolerance rate (non-transgenic = 1.0) ([3]; transgenic Arabidopsis Am_PPO2_R137A_F438L): >50; TF (Tolerance Factor), relative tolerance rate (non-transgenic = 1.0) ([3]; transgenic Arabidopsis Am_PPO2_R137A_F438M): >50; TF (Tolerance Factor), relative tolerance rate (non-transgenic = 1.0) ([3]; transgenic Arabidopsis Am_PPO2_R137A_F438V): >50; TF (Tolerance Factor), relative tolerance rate (non-transgenic = 1.0) ([3]; transgenic Arabidopsis Am_PPO2_R137I): >50; TF (Tolerance Factor), relative tolerance rate (non-transgenic = 1.0) ([3]; transgenic Arabidopsis Am_PPO2_R137L_F438I): >50; TF (Tolerance Factor), relative tolerance rate (non-transgenic = 1.0) ([3]; transgenic Arabidopsis Am_PPO2_R137L_F438L): >50; TF (Tolerance Factor), relative tolerance rate (non-transgenic = 1.0) ([3]; transgenic Arabidopsis Am_PPO2_R137L_F438M): >50; TF (Tolerance Factor), relative tolerance rate (non-transgenic = 1.0) ([3]; transgenic Arabidopsis Am_PPO2_R137M_F438I): >50; TF (Tolerance Factor), relative tolerance rate (non-transgenic = 1.0) ([3]; transgenic Arabidopsis Am_PPO2_R137M_F438L): >50; TF (Tolerance Factor), relative tolerance rate (non-transgenic = 1.0) ([3]; transgenic Arabidopsis Am_PPO2_R137M_F438M): >50; TF (Tolerance Factor), relative tolerance rate (non-transgenic = 1.0) ([3]; transgenic Arabidopsis Am_PPO2_R137M_F438V): >50; IC50 ([4]; PPO herbicide sensitive PPO2 AC): 5.96e-11 M; IC50 ([4]; PPO herbicide sensitive PPO2 WC): 5.17e-10 M; Herbicide injury, 0 to 9 rating scale ([5]; T0 corn events AlomyPPO1_R138A, 50 g ai/ha + 1% (v/v) MSO at V2 stage): 6; Herbicide injury, 0 to 9 rating scale ([5]; T0 corn events AlomyPPO1_R138A_Y420M, 50 g ai/ha + 1% (v/v) MSO at V2 stage): 5 and 6; Herbicide injury, 0 to 9 rating scale ([5]; T0 corn events AlomyPPO1_R138A_Y420V, 50 g ai/ha + 1% (v/v) MSO at V2 stage): 6 and 5; Herbicide injury, 0 to 9 rating scale ([5]; T0 corn events AlomyPPO1_R138A_Y420V, 100 g ai/ha + 1% (v/v) MSO at V2 stage): 5; Herbicide injury, 0 to 9 rating scale ([5]; T0 corn events AlomyPPO1_Y420M, 50 g ai/ha + 1% (v/v) MSO at V2 stage): 5 and 6; Herbicide injury, 0 to 9 rating scale ([5]; T0 corn events AlomyPPO1_Y420M, 100 g ai/ha + 1% (v/v) MSO at V2 stage): 6; Herbicide injury, 0 to 9 rating scale ([5]; T0 corn events AlomyPPO1_Y420V, 50 g ai/ha + 1% (v/v) MSO at V2 stage): 5 and 4 and 6; Herbicide injury, 0 to 9 rating scale ([5]; T0 corn events AlomyPPO1_Y420V, 100 g ai/ha + 1% (v/v) MSO at V2 stage): 6; Herbicide injury, 0 to 9 rating scale ([5]; T0 corn events AlomyPPO2, 50 g ai/ha + 1% (v/v) MSO at V2 stage): 6; Herbicide injury, 0 to 9 rating scale ([5]; T0 corn events AlomyPPO2, 75 g ai/ha + 1% (v/v) MSO at V2 stage): 6; Herbicide injury, 0 to 9 rating scale ([5]; T0 corn events AlomyPPO2_R137A, 50 g ai/ha + 1% (v/v) MSO at V2 stage): 5 and 4 and 6; Herbicide injury, 0 to 9 rating scale ([5]; T0 corn events AlomyPPO2_R137A, 75 g ai/ha + 1% (v/v) MSO at V2 stage): 5; Herbicide injury, 0 to 9 rating scale ([5]; T0 corn events AlomyPPO2_R137A_F438I, 50 g ai/ha + 1% (v/v) MSO at V2 stage): 4; Herbicide injury, 0 to 9 rating scale ([5]; T0 corn events AlomyPPO2_R137A_F438I, 100 g ai/ha + 1% (v/v) MSO at V2 stage): 4 and 5; Herbicide injury, 0 to 9 rating scale ([5]; T0 corn events AlomyPPO2_R137A_F438M, 100 g ai/ha + 1% (v/v) MSO at V2 stage): 5; Herbicide injury, 0 to 9 rating scale ([5]; T0 corn events AlomyPPO2_R137A_F438V, 100 g ai/ha + 1% (v/v) MSO at V2 stage): 6; Herbicide injury, 0 to 9 rating scale ([5]; T0 corn events AlomyPPO2_R137I, 100 g ai/ha + 1% (v/v) MSO at V2 stage): 4; Herbicide injury, 0 to 9 rating scale ([5]; T0 corn events AlomyPPO2_R137M_F438I, 75 g ai/ha + 1% (v/v) MSO at V2 stage): 3 and 4; Herbicide injury, 0 to 9 rating scale ([5]; T0 corn events tp-SorbiPPO2::AlomyPPO2, 50 g ai/ha + 1% (v/v) MSO at V2 stage): 5 and 6; Herbicide injury, 0 to 9 rating scale ([5]; T0 corn events tp-SorbiPPO2::AlomyPPO2, 100 g ai/ha + 1% (v/v) MSO at V2 stage): 5; Herbicide injury, 0 to 9 rating scale ([5]; T0 corn events tp-SorbiPPO2::AlomyPPO2_F431V, 50 g ai/ha + 1% (v/v) MSO at V2 stage): 4 and 5; Herbicide injury, 0 to 9 rating scale ([5]; T0 corn events tp-SorbiPPO2::AlomyPPO2_F431V, 100 g ai/ha + 1% (v/v) MSO at V2 stage): 5 and 6; Herbicide injury, 0 to 9 rating scale ([5]; T0 corn events tp-SorbiPPO2::AlomyPPO2_R130A, 50 g ai/ha + 1% (v/v) MSO at V2 stage): 4 and 5; Herbicide injury, 0 to 9 rating scale ([5]; T0 corn events tp-SorbiPPO2::AlomyPPO2_R130A_F431V, 100 g ai/ha + 1% (v/v) MSO at V2 stage): 7 and 6; Herbicide injury, 0 to 9 rating scale ([5]; T0 corn events tp-SorbiPPO2::c-AlomyPPO2_R130A_F431M, 50 g ai/ha + 1% (v/v) MSO at V2 stage): 4 and 5; Herbicide injury, 0 to 9 rating scale ([5]; T0 corn events tp-SorbiPPO2::c-AlomyPPO2_R130L_F431V, 50 g ai/ha + 1% (v/v) MSO at V2 stage): 4 and 3 and 5; Herbicide injury, 0 to 9 rating scale ([5]; T0 corn events tp-ZeamaPPO2::AlomyPPO2, 50 g ai/ha + 1% (v/v) MSO at V2 stage): 5 and 6; Herbicide injury, 0 to 9 rating scale ([5]; T0 corn events tp-ZeamaPPO2::AlomyPPO2_F431V, 50 g ai/ha + 1% (v/v) MSO at V2 stage): 3 and 4 and 5; Herbicide injury, 0 to 9 rating scale ([5]; T0 corn events tp-ZeamaPPO2::AlomyPPO2_F431V, 100 g ai/ha + 1% (v/v) MSO at V2 stage): 4; Herbicide injury, 0 to 9 rating scale ([5]; T0 corn events tp-ZeamaPPO2::AlomyPPO2_R130A, 50 g ai/ha + 1% (v/v) MSO at V2 stage): 7 and 4 and 5 and 6; Herbicide injury, 0 to 9 rating scale ([5]; T0 corn events tp-ZeamaPPO2::AlomyPPO2_R130A, 100 g ai/ha + 1% (v/v) MSO at V2 stage): 5; Herbicide injury, 0 to 9 rating scale ([5]; T0 corn events tp-ZeamaPPO2::AlomyPPO2_R130A_F431V, 50 g ai/ha + 1% (v/v) MSO at V2 stage): 4 and 5; Herbicide injury, 0 to 9 rating scale ([5]; T0 corn events tp-ZeamaPPO2::c-AlomyPPO2_R130L_F431V, 50 g ai/ha + 1% (v/v) MSO at V2 stage): 3 and 4 and 5 and 6; Herbicide injury, 0 to 9 rating scale ([5]; T0 corn events tp-ZeamaPPO2::c-AlomyPPO2_R130M_F431V, 50 g ai/ha + 1% (v/v) MSO at V2 stage): 3 and 4 and 2; Herbicide injury, 0 to 9 rating scale ([5]; untransformed wild type corn, 50 g ai/ha + 1% (v/v) MSO at V2 stage): 6; Herbicide injury, 0 to 9 rating scale ([5]; untransformed wild type corn, 75 g ai/ha + 1% (v/v) MSO at V2 stage): 6; Herbicide injury, 0 to 9 rating scale ([5]; untransformed wild type corn, 100 g ai/ha + 1% (v/v) MSO at V2 stage): 6
